In ChEMBL document CHEMBL3862012, “Methylene versus carbonyl bridge in the structure of new tubulin polymerization inhibitors with tricyclic A-rings” (Bioorg Med Chem, 2016):

test system: not listed separately; assay: Cytotoxicity against human ACHN cells assessed as growth inhibition at 10 uM after 48 hrs by SRB assay relative to control; type: functional; conditions: read-out: GI

Structure (SMILES)	inhibition of growth at 10 µM [%]
COc1ccc(CN2c3ccccc3CCc3ccccc32)cc1F	64

test system: not listed separately; assay: Cytotoxicity against human Hs 578T cells assessed as growth inhibition at 10 uM after 48 hrs by SRB assay relative to control; type: functional; conditions: read-out: GI

Structure (SMILES)	inhibition of growth at 10 µM [%]
COc1ccc(CN2c3ccccc3CCc3ccccc32)cc1F	70

test system: not listed separately; assay: Cytotoxicity against human PC3 cells assessed as growth inhibition at 10 uM after 48 hrs by SRB assay relative to control; type: functional; conditions: PC-3, 48 h, read-out: GI

Structure (SMILES)	inhibition of growth at 10 µM [%]
COc1ccc(CN2c3ccccc3CCc3ccccc32)cc1F	76

test system: not listed separately; assay: Cytotoxicity against human NCI-H460 cells assessed as growth inhibition at 10 uM after 48 hrs by SRB assay relative to control; type: functional; conditions: NCI-H460, 48 h, read-out: GI

Structure (SMILES)	inhibition of growth at 10 µM [%]
COc1ccc(CN2c3ccccc3CCc3ccccc32)cc1F	93

test system: not listed separately; assay: Cytotoxicity against human MDA-MB-435 cells assessed as growth inhibition at 10 uM after 48 hrs by SRB assay relative to control; type: functional; conditions: MDA-MB-435, 48 h, read-out: GI

Structure (SMILES)	inhibition of growth at 10 µM [%]
COc1ccc(CN2c3ccccc3CCc3ccccc32)cc1F	100

test system: not listed separately; assay: Cytotoxicity against human MCF7 cells assessed as growth inhibition at 10 uM after 48 hrs by SRB assay relative to control; type: functional; conditions: MCF7, 48 h, read-out: GI

Structure (SMILES)	inhibition of growth at 10 µM [%]
COc1ccc(CN2c3ccccc3CCc3ccccc32)cc1F	80

test system: not listed separately; assay: Cytotoxicity against human U251 cells assessed as growth inhibition at 10 uM after 48 hrs by SRB assay relative to control; type: functional; conditions: U-251, 48 h, read-out: GI

Structure (SMILES)	inhibition of growth at 10 µM [%]
COc1ccc(CN2c3ccccc3CCc3ccccc32)cc1F	79

test system: not listed separately; assay: Cytotoxicity against human SNB19 cells assessed as growth inhibition at 10 uM after 48 hrs by SRB assay relative to control; type: functional; conditions: SNB-19, 48 h, read-out: GI

Structure (SMILES)	inhibition of growth at 10 µM [%]
COc1ccc(CN2c3ccccc3CCc3ccccc32)cc1F	61

test system: not listed separately; assay: Cytotoxicity against human COLO205 cells assessed as growth inhibition at 10 uM after 48 hrs by SRB assay relative to control; type: functional; conditions: COLO 205, 48 h, read-out: GI

Structure (SMILES)	inhibition of growth at 10 µM [%]
COc1ccc(CN2c3ccccc3CCc3ccccc32)cc1F	100

test system: not listed separately; assay: Cytotoxicity against human CCRF-CEM cells assessed as growth inhibition at 10 uM after 48 hrs by SRB assay relative to control; type: functional; conditions: read-out: GI

Structure (SMILES)	inhibition of growth at 10 µM [%]
COc1ccc(CN2c3ccccc3CCc3ccccc32)cc1F	96

test system: not listed separately; assay: Cytotoxicity against human MDA-MB-468 cells assessed as growth inhibition at 10 uM after 48 hrs by SRB assay relative to control; type: functional; conditions: MDA-MB-468, 48 h, read-out: GI

Structure (SMILES)	inhibition of growth at 10 µM [%]
COc1ccc(CN2c3ccccc3CCc3ccccc32)cc1F	96

test system: not listed separately; assay: Cytotoxicity against human OVCAR3 cells assessed as growth inhibition at 10 uM after 48 hrs by SRB assay relative to control; type: functional; conditions: OVCAR-3, 48 h, read-out: GI

Structure (SMILES)	inhibition of growth at 10 µM [%]
COc1ccc(CN2c3ccccc3CCc3ccccc32)cc1F	100

test system: not listed separately; assay: Cytotoxicity against human UO31 cells assessed as growth inhibition at 10 uM after 48 hrs by SRB assay relative to control; type: functional; conditions: UO-31, 48 h, read-out: GI

Structure (SMILES)	inhibition of growth at 10 µM [%]
COc1ccc(CN2c3ccccc3CCc3ccccc32)cc1F	57

test system: not listed separately; assay: Cytotoxicity against human SW620 cells assessed as growth inhibition at 10 uM after 48 hrs by SRB assay relative to control; type: functional; conditions: SW-620, 48 h, read-out: GI

Structure (SMILES)	inhibition of growth at 10 µM [%]
COc1ccc(CN2c3ccccc3CCc3ccccc32)cc1F	79

test system: not listed separately; assay: Cytotoxicity against human UACC257 cells assessed as growth inhibition at 10 uM after 48 hrs by SRB assay relative to control; type: functional; conditions: UACC-257, 48 h, read-out: GI

Structure (SMILES)	inhibition of growth at 10 µM [%]
COc1ccc(CN2c3ccccc3CCc3ccccc32)cc1F	38

test system: not listed separately; assay: Cytotoxicity against human T47D cells assessed as growth inhibition at 10 uM after 48 hrs by SRB assay relative to control; type: functional; conditions: read-out: GI

Structure (SMILES)	inhibition of growth at 10 µM [%]
COc1ccc(CN2c3ccccc3CCc3ccccc32)cc1F	53

test system: not listed separately; assay: Cytotoxicity against human NCI-H522 cells assessed as growth inhibition at 10 uM after 48 hrs by SRB assay relative to control; type: functional; conditions: NCI-H522, 48 h, read-out: GI

Structure (SMILES)	inhibition of growth at 10 µM [%]
COc1ccc(CN2c3ccccc3CCc3ccccc32)cc1F	100

test system: not listed separately; assay: Cytotoxicity against human EKVX cells assessed as growth inhibition at 10 uM after 48 hrs by SRB assay relative to control; type: functional; conditions: read-out: GI

Structure (SMILES)	inhibition of growth at 10 µM [%]
COc1ccc(CN2c3ccccc3CCc3ccccc32)cc1F	59

test system: not listed separately; assay: Cytotoxicity against human HCT116 cells assessed as growth inhibition at 10 uM after 48 hrs by SRB assay relative to control; type: functional; conditions: HCT-116, 48 h, read-out: GI

Structure (SMILES)	inhibition of growth at 10 µM [%]
COc1ccc(CN2c3ccccc3CCc3ccccc32)cc1F	98

test system: not listed separately; assay: Cytotoxicity against human NCI-H23 cells assessed as growth inhibition at 10 uM after 48 hrs by SRB assay relative to control; type: functional; conditions: NCI-H23, 48 h, read-out: GI

Structure (SMILES)	inhibition of growth at 10 µM [%]
COc1ccc(CN2c3ccccc3CCc3ccccc32)cc1F	61

organism: Ovis aries; assay: Inhibition of sheep brain tubulin polymerization at 100 uM by DAPI staining-based fluorimetric method relative to control; conditions: not given

Structure (SMILES)	inhibition [%]
COc1ccc(CN2c3ccccc3CCc3ccccc32)cc1F	58

test system: not listed separately; assay: Cytotoxicity against human MALME-3M cells assessed as growth inhibition at 10 uM after 48 hrs by SRB assay relative to control; type: functional; conditions: read-out: GI

Structure (SMILES)	inhibition of growth at 10 µM [%]
COc1ccc(CN2c3ccccc3CCc3ccccc32)cc1F	16

test system: not listed separately; assay: Cytotoxicity against human M14 cells assessed as growth inhibition at 10 uM after 48 hrs by SRB assay relative to control; type: functional; conditions: M14, 48 h, read-out: GI

Structure (SMILES)	inhibition of growth at 10 µM [%]
COc1ccc(CN2c3ccccc3CCc3ccccc32)cc1F	100

test system: not listed separately; assay: Cytotoxicity against human A549 cells assessed as growth inhibition at 10 uM after 48 hrs by SRB assay relative to control; type: functional; conditions: A549, 48 h, read-out: GI

Structure (SMILES)	inhibition of growth at 10 µM [%]
COc1ccc(CN2c3ccccc3CCc3ccccc32)cc1F	79

test system: not listed separately; assay: Cytotoxicity against human NCI-ADR-RES cells assessed as growth inhibition at 10 uM after 48 hrs by SRB assay relative to control; type: functional; conditions: read-out: GI

Structure (SMILES)	inhibition of growth at 10 µM [%]
COc1ccc(CN2c3ccccc3CCc3ccccc32)cc1F	89

test system: not listed separately; assay: Cytotoxicity against human SF268 cells assessed as growth inhibition at 10 uM after 48 hrs by SRB assay relative to control; type: functional; conditions: SF-268, 48 h, read-out: GI

Structure (SMILES)	inhibition of growth at 10 µM [%]
COc1ccc(CN2c3ccccc3CCc3ccccc32)cc1F	61

test system: not listed separately; assay: Cytotoxicity against human 786-0 cells assessed as growth inhibition at 10 uM after 48 hrs by SRB assay relative to control; type: functional; conditions: 786-0, 48 h, read-out: GI

Structure (SMILES)	inhibition of growth at 10 µM [%]
COc1ccc(CN2c3ccccc3CCc3ccccc32)cc1F	66

test system: not listed separately; assay: Cytotoxicity against human OVCAR5 cells assessed as growth inhibition at 10 uM after 48 hrs by SRB assay relative to control; type: functional; conditions: OVCAR-5, 48 h, read-out: GI

Structure (SMILES)	inhibition of growth at 10 µM [%]
COc1ccc(CN2c3ccccc3CCc3ccccc32)cc1F	59

test system: not listed separately; assay: Cytotoxicity against human RPMI8226 cells assessed as growth inhibition at 10 uM after 48 hrs by SRB assay relative to control; type: functional; conditions: RPMI-8226, 48 h, read-out: GI

Structure (SMILES)	inhibition of growth at 10 µM [%]
COc1ccc(CN2c3ccccc3CCc3ccccc32)cc1F	91

test system: not listed separately; assay: Cytotoxicity against human HT-29 cells assessed as growth inhibition at 10 uM after 48 hrs by SRB assay relative to control; type: functional; conditions: HT-29, 48 h, read-out: GI

Structure (SMILES)	inhibition of growth at 10 µM [%]
COc1ccc(CN2c3ccccc3CCc3ccccc32)cc1F	98

test system: not listed separately; assay: Cytotoxicity against human NCI-H322M cells assessed as growth inhibition at 10 uM after 48 hrs by SRB assay relative to control; type: functional; conditions: read-out: GI

Structure (SMILES)	inhibition of growth at 10 µM [%]
COc1ccc(CN2c3ccccc3CCc3ccccc32)cc1F	42

test system: not listed separately; assay: Cytotoxicity against human RXF393 cells assessed as growth inhibition at 10 uM after 48 hrs by SRB assay relative to control; type: functional; conditions: RXF 393, 48 h, read-out: GI

Structure (SMILES)	inhibition of growth at 10 µM [%]
COc1ccc(CN2c3ccccc3CCc3ccccc32)cc1F	82

test system: not listed separately; assay: Cytotoxicity against human OVCAR4 cells assessed as growth inhibition at 10 uM after 48 hrs by SRB assay relative to control; type: functional; conditions: OVCAR-4, 48 h, read-out: GI

Structure (SMILES)	inhibition of growth at 10 µM [%]
COc1ccc(CN2c3ccccc3CCc3ccccc32)cc1F	58

test system: not listed separately; assay: Cytotoxicity against human HCT15 cells assessed as growth inhibition at 10 uM after 48 hrs by SRB assay relative to control; type: functional; conditions: HCT-15, 48 h, read-out: GI

Structure (SMILES)	inhibition of growth at 10 µM [%]
COc1ccc(CN2c3ccccc3CCc3ccccc32)cc1F	75

test system: not listed separately; assay: Cytotoxicity against human HL-60(TB) cells assessed as growth inhibition at 10 uM after 48 hrs by SRB assay relative to control; type: functional; conditions: HL-60, 48 h, read-out: GI

Structure (SMILES)	inhibition of growth at 10 µM [%]
COc1ccc(CN2c3ccccc3CCc3ccccc32)cc1F	100

test system: not listed separately; assay: Cytotoxicity against human SK-MEL-2 cells assessed as growth inhibition at 10 uM after 48 hrs by SRB assay relative to control; type: functional; conditions: SK-MEL-2, 48 h, read-out: GI

Structure (SMILES)	inhibition of growth at 10 µM [%]
COc1ccc(CN2c3ccccc3CCc3ccccc32)cc1F	73

test system: not listed separately; assay: Cytotoxicity against human KM12 cells assessed as growth inhibition at 10 uM after 48 hrs by SRB assay relative to control; type: functional; conditions: KM12, 48 h, read-out: GI

Structure (SMILES)	inhibition of growth at 10 µM [%]
COc1ccc(CN2c3ccccc3CCc3ccccc32)cc1F	83

test system: not listed separately; assay: Cytotoxicity against human MOLT4 cells assessed as growth inhibition at 10 uM after 48 hrs by SRB assay relative to control; type: functional; conditions: MOLT-4, 48 h, read-out: GI

Structure (SMILES)	inhibition of growth at 10 µM [%]
COc1ccc(CN2c3ccccc3CCc3ccccc32)cc1F	84
